Data from US8492405B2, “Glucokinase-activating fused heterocyclic compounds and methods of treating diabetes and obesity” (Takeda Pharmaceutical Company Limited, priority 2006, dated 2013).

How the values were obtained:
[1] = biological target: T1, GST-hLGK1 (human liver type GK) (Homo sapiens, UniProt P35557); test: Determination of GK activity value (Mant-ATP/Mant-ADP capillary electrophoresis); assay type: biochemical; conditions: GK activation; GST-hLGK1, D-glucose, 37° C. for 60 min
T1 construct: made in house; host or cells: Escherichia coli BL21
T1 sequence (P35557 1-464 isoform P35557-3): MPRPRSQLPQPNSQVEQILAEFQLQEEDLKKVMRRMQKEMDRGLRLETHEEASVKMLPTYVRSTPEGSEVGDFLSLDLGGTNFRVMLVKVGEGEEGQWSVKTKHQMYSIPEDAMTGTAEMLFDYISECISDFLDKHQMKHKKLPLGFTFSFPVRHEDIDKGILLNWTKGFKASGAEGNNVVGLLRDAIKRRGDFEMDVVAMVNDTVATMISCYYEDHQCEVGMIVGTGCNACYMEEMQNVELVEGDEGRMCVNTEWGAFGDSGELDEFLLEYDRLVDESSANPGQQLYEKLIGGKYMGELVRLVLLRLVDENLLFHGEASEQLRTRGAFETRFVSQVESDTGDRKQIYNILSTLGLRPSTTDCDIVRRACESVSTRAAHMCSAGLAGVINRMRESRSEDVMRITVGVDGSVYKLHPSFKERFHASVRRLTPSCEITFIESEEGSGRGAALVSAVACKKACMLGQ
Method: A solution (5 μL) of test compound in 50% dimethyl sulfoxide was added to each well of 384 well black plate (Nalge Nunc International K.K.). Then, a solution (35 μL) obtained by diluting GST-hLGK1 obtained in Reference Example 2A with measurement buffer (containing 50 mM HEPES (pH 7.4), 200 mM KCl, 5 mM MgCl2, 2.5 mM DTT and 50 μM 2′-(or -3′)—O—(N-methylanthraniloyl) adenosine 5′-triphosphate (Mant-ATP) (Jena Bioscience GmbH)) to 6 μg/mL was added to each well.
Each well was stood at 37° C. for 10 min, and 25 mM D-glucose solution (10 μL) was added to start the reaction.
Each well after the reaction was stood at 37° C. for 60 min, and the reaction was quenched by adding 25 μL of a quenching solution (containing 200 mM HEPES (pH 7.4), 20 mM MgCl2, 200 mM EDTA, 0.03% Triton-X 100, 0.3% Coating 3 reagent (Caliper Life Sciences, Inc.)).
2′-(or -3′)-O—(N-methylanthraniloyl)adenosine 5′-triphosphate (Mant-ATP, substrate) and Mant-ADP (reaction resultant product) were separated from each well after the reaction by a microchip type capillary electrophoresis apparatus 250 HTS (Caliper Life Sciences, Inc.). The reaction rate [(reaction resultant product peak height)/(reaction resultant product peak height+substrate peak height)×100(%)] was calculated from the ratio of the substrate peak height and reaction resultant product peak height obtained by fluorescence detection (excitation wavelength 355 nm, measurement wavelength 460 nm) and used as the index of GK activity.
As a control group, the reaction rate was calculated in the same manner as above except that “solution in 50% dimethyl sulfoxide (free of a test compound)” was used instead of “solution of test compound in 50% dimethyl sulfoxide”.
Using the percentage obtained by subtracting the reaction rate of the control group from the reaction rate of the well added with the test compound (test compound addition group) as a GK activation value of the test compound, a concentration dependency curve of the test compound was drawn, and the concentration of the test compound at the middle point between the maximum activity value of the test compound addition group and the activity value of the control group was taken as an EC50 value.

Compound	EC50 [1]	melting point
CCOC(=O)c1cc2nc(C)n(Cc3ccccc3)c2[nH]1 [Example 1, ethyl 3-benzyl-2-methyl-3,4-dihydropyrrolo[2,3-d]imidazole-5-carboxylate]	3600 nM	193 °C
CCOC(=O)c1cc2sc(C)c(N(C)C(=O)OCc3ccccc3)c2[nH]1 [Example 2, ethyl 3-{[(benzyloxy)carbonyl](methyl)amino}-2-methyl-4H-thieno[3,2-b]pyrrole-5-carboxylate]	–	122 °C
CCOC(=O)c1cc2sc(C)c(N(C)S(=O)(=O)c3cccs3)c2[nH]1 [Example 3, ethyl 2-methyl-3-[methyl(2-thienylsulfonyl)amino]-4H-thieno[3,2-b]pyrrole-5-carboxylate]	–	161 °C
Cc1sc2cc(C3=NCCS3)[nH]c2c1N(C)S(=O)(=O)c1cccs1 [Example 5, N-[5-(4,5-dihydro-1,3-thiazol-2-yl)-2-methyl-4H-thieno[3,2-b]pyrrol-3-yl]-N-methylthiophene-2-sulfonamide]	74 nM	140 °C
Cc1sc2cc(C(=O)NCC3(SCc4ccccc4)CCNCC3)[nH]c2c1N(C)S(=O)(=O)c1cccs1 [Example 6, N-{[4-(benzylthio)piperidin-4-yl]methyl}-2-methyl-3-[methyl(2-thienylsulfonyl)amino]-4H-thieno[3,2-b]pyrrole-5-carboxamide]	–	222 °C
Cc1sc2cc(C3=NCC4(CCNCC4)S3)[nH]c2c1N(C)S(=O)(=O)c1cccs1 [Example 7, N-methyl-N-[2-methyl-5-(1-thia-3,8-diazaspiro[4.5]deca-2-en-2-yl)-4H-thieno[3,2-b]pyrrol-3-yl]thiophene-2-sulfonamide]	–	196 °C
CC(=O)N1CCC2(CC1)CN=C(c1cc3sc(C)c(N(C)S(=O)(=O)c4cccs4)c3[nH]1)S2 [Example 8, N-[5-(8-acetyl-1-thia-3,8-diazaspiro[4.5]deca-2-en-2-yl)-2-methyl-4H-thieno[3,2-b]pyrrol-3-yl]-N-methylthiophene-2-sulfonamide]	160 nM	231 °C
CCOC(=O)C(=O)NNC(=O)c1cc2sc(C)c(N(C)S(=O)(=O)c3cccs3)c2[nH]1 [Example 9, ethyl [2-({2-methyl-3-[methyl(2-thienylsulfonyl)amino]-4H-thieno[3,2-b]pyrrol-5-yl}carbonyl)hydrazino](oxo)acetate]	–	135 °C
CCOC(=O)c1nnc(-c2cc3sc(C)c(N(C)S(=O)(=O)c4cccs4)c3[nH]2)s1 [Example 10, ethyl 5-{2-methyl-3-[methyl(2-thienylsulfonyl)amino]-4H-thieno[3,2-b]pyrrol-5-yl}-1,3,4-thiadiazole-2-carboxylate]	–	209 °C
COC(OC)C1CN=C(c2cc3sc(C)c(N(C)S(=O)(=O)c4cccs4)c3[nH]2)S1 (centres unmarked) [Example 12, N-{5-[5-(dimethoxymethyl)-4,5-dihydro-1,3-thiazol-2-yl]-2-methyl-4H-thieno[3,2-b]pyrrol-3-yl}-N-methylthiophene-2-sulfonamide]	–	185 °C
CON(C)C(=O)c1cc2sc(C)c(N(C)S(=O)(=O)c3cccs3)c2[nH]1 [Example 13, N-methoxy-N,2-dimethyl-3-[methyl(2-thienylsulfonyl)amino]-4H-thieno[3,2-b]pyrrole-5-carboxamide]	–	187 °C
CC(=O)c1cc2sc(C)c(N(C)S(=O)(=O)c3cccs3)c2[nH]1 [Example 14, N-(5-acetyl-2-methyl-4H-thieno[3,2-b]pyrrol-3-yl)-N-methylthiophene-2-sulfonamide]	–	220 °C
CCOC(=O)c1cc2c([nH]1)c(N(C)S(=O)(=O)c1cccs1)cn2CC [Example 15, ethyl 4-ethyl-6-[methyl(2-thienylsulfonyl)amino]-1,4-dihydropyrrolo[3,2-b]pyrrole-2-carboxylate]	–	122 °C
CCn1cc(N(C)S(=O)(=O)c2cccs2)c2[nH]c(C3=NCCS3)cc21 [Example 17, N-[5-(4,5-dihydro-1,3-thiazol-2-yl)-1-ethyl-1,4-dihydropyrrolo[3,2-b]pyrrol-3-yl]-N-methylthiophene-2-sulfonamide]	350 nM	163 °C
CCOC(=O)c1cc2c([nH]1)c(N(C)S(=O)(=O)c1cccs1)cn2Cc1ccccc1 [Example 18, ethyl 4-benzyl-6-[methyl(2-thienylsulfonyl)amino]-1,4-dihydropyrrolo[3,2-b]pyrrole-2-carboxylate]	430 nM	120 °C
